Measured values: US20200377501A1, “DEGRADERS OF EGFR AND METHODS OF USE THEREOF” (DANA-FARBER CANCER INSTITUTE, INC., priority 2018, published 2020)
pEC50, pIC50: −log10 of the molar value. Where two headings read alike, the source gives them in different places.

Assays:
[1] = biological target: T1, EGFR T790M/L858R Ba/F3 cell line (Homo sapiens, UniProt P00533, T790M/L858R, cells depend on it); test: Ba/F3 cell proliferation (MTS assay); type: cell-based, murine; details: for Remaining cell proliferation activity (% of control): EGFR T790M/L858R Ba/F3
T1 construct: The constructs were shuttled into the retroviral vector JP1540 using the BD Creator™ System (BD Biosciences)
Procedure: The EGFR mutant L858R, Del E746_A750, L858R/T790M, DelE746_A750/T790M, L858R/T790M/C797S and Del/T790M/C797S Ba/F3 cells were previously described (Zhou et al., Nature 462, (2009), 1070-1074). All cell lines were maintained in RPMI 1640 (Cellgro; Mediatech Inc., Herndon, Calif.) supplemented with 10% FBS 100 units/mL penicillin, 100 units/mL streptomycin, and 2 mM glutamine. L858R cells were maintained in ACL-4 media (Invitrogen, Carlsbad, Calif.) supplemented with 5% FBS, 100 units/mL penicillin, 100 units/mL streptomycin, and 2 mM glutamine. The EGFR 1941R mutation was introduced via site directed mutagenesis using the Quick Change Site-Directed Mutagenesis kit (Stratagene; La Jolla, Calif.) according to the manufacturer's instructions. All constructs were confirmed by DNA sequencing. The constructs were shuttled into the retroviral vector JP1540 using the BD Creator™ System (BD Biosciences). Ba/F3 cells were infected with retrovirus and according to standard protocols, as described previously (Zhou 2009). Stable clones were obtained by selection in puromycin (2 μg/ml).
Growth and inhibition of growth was assessed by MTS assay and was performed according to previously established methods (Zhou 2009). The MTS assay is a colorimetric method for determining the number of viable cells that is based on the bioreduction of MTS by cells to a formazan product that is soluble in cell culture medium and can be detected spectrophotometrically. […] All experimental points were set up in six wells and all experiments were repeated at least three times. […] The curves were fitted using anon-linear regression model with a sigmoidal dose response.

[2] = biological target: T2, recombinant EGFR T790M/L858R kinase (Homo sapiens, UniProt P00533, L858R/T790M); test: HTRF-based EGFR biochemical assay
T2 construct: Constructs spanning residues 696-1022 of the human EGFR; GST (cleaved yes); made in house; host or cells: Sf9 insect cells (pTriEX system)
Procedure: Constructs spanning residues 696-1022 of the human EGFR (including wild type and L858R, L858R/T790M, T790M, and T790M/V948R mutant sequences) were prepared in a GST-fusion format using the pTriEX system (Novagen) for expression in Sf9 insect cells essentially as described (Yun et al., PNAS 105, 2070-2075 (2008); Yun et al., Cancer Cell 11, 217-227 (2007)). EGFR kinase proteins were purified by glutathione-affinity chromatography followed by size-exclusion chromatography after cleavage with TEV or thrombin to remove the GST fusion partner following established procedures.
EGFR biochemical assays were carried out using a homogeneous time-resolved fluorescence (HTRF) assay as described previously. […] All reactions were carried out at room temperature in white ProxiPlate™ 384-well Plus plates (PerkinElmer) and were quenched with 5 μL of 0.2 M EDTA at 60 min.

[3] = absence of cetuximab, read-out: Ba/F3 cellular activity (EC50) T790M/L858R
[4] = compound at 1 μM in the presence of 1 μg/mL cetuximab
[5] = read-out: Ba/F3 cellular activity (EC50) T790M/L858R + Cetuximab (1 μg/mL), presence of 1 μg/mL cetuximab

T1 sequence (P00533 whole entry T790M/L858R): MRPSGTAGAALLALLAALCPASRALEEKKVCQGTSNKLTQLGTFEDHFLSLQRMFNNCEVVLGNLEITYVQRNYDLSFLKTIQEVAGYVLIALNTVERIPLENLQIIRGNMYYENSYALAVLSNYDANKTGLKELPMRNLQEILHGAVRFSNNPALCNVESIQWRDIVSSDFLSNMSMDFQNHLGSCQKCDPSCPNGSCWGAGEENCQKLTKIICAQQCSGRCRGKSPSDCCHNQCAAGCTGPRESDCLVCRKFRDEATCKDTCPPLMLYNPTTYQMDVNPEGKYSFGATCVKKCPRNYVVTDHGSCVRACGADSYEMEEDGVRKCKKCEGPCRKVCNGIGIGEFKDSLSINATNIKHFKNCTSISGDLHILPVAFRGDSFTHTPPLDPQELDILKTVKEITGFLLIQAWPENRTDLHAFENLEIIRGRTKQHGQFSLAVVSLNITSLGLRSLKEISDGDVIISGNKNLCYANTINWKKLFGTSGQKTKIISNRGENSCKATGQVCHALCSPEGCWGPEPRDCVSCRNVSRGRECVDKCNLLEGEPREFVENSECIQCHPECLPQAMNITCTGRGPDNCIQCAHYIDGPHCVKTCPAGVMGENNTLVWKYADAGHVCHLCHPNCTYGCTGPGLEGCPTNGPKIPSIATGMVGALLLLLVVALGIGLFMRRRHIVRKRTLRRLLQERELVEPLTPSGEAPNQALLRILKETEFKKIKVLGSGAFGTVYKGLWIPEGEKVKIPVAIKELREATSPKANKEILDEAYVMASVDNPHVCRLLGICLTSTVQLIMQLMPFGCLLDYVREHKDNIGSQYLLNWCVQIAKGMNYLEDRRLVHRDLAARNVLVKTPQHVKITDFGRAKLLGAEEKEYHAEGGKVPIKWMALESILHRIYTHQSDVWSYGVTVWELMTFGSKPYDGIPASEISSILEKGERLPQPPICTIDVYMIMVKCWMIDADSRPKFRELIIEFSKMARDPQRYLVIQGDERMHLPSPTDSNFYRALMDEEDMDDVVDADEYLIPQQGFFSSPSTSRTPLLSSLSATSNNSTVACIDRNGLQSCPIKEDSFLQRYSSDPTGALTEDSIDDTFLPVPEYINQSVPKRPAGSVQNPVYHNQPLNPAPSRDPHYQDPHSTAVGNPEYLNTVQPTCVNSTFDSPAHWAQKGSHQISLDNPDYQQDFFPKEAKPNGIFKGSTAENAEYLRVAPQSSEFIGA
T2 sequence (P00533 696-1022 T790M/L858R): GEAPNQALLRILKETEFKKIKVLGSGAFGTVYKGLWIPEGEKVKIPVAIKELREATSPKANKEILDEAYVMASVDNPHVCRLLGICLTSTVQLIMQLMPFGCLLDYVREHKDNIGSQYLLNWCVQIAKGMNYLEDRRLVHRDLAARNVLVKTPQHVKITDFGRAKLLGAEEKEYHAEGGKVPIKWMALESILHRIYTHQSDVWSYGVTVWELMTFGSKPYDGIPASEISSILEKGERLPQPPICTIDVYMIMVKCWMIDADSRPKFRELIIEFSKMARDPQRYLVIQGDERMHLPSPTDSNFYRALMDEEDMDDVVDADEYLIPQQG

Compound | pEC50 [1, 3] | Remaining cell proliferation activity (% of control) [1, 4] | Remaining cell proliferation activity (% of control) ([1]; compound at 1 μM) | pEC50 [1, 5] | pIC50 [2]
O=C1c2cc(-c3ccc(N4CCNCC4)cc3)ccc2Nc2ccccc2N1Cc1ccccc1 [I-11] | ≤ 6.12 | B (25 ≤ B < 50) | D (75 ≤ D) | 6.30 to 6.60 | –
O=C1c2cc(-c3ccc(N4CCNCC4)cc3)ccc2Nc2ncc(F)cc2N1Cc1ccccc1 [I-12] | ≤ 6.12 | – | – | ≤ 6.12 | –
O=C1c2cc(-c3ccc(N4CCNCC4)cc3)ccc2Nc2ccncc2N1Cc1ccccc1 [I-13] | ≤ 6.12 | – | – | ≤ 6.12 | –
Nc1ccc2c(c1)N(Cc1ccccc1)C(=O)c1cc(-c3ccc4[nH]ccc4c3)ccc1N2 [I-14] | ≤ 6.12 | – | – | ≤ 6.12 | –
CC(=O)Nc1ccc2c(c1)N(Cc1ccccc1)C(=O)c1cc(-c3ccc4[nH]ccc4c3)ccc1N2 [I-15] | ≤ 6.12 | – | – | ≤ 6.12 | –
CN1CCN(c2ccc(-c3ccc4c(c3)C(=O)N(Cc3ccccc3)c3cc(F)ccc3N4)cc2)CC1 [I-17] | – | – | – | – | > 6.60
O=C1c2cc(-c3ccc(N4CCNCC4)cc3)ccc2Nc2ccc(F)cc2N1Cc1cccc2cc[nH]c12 [I-18] | ≤ 6.12 | – | – | > 6.60 | –
O=C1c2cc(-c3ccc(N4CCNCC4)cc3)ccc2Nc2ccc(F)cc2N1Cc1ccc2cc[nH]c2c1 [I-19] | ≤ 6.12 | – | – | ≤ 6.12 | –
CN1CCC(n2cc(-c3ccc4c(c3)C(=O)N(Cc3cccc(F)c3)c3cc(F)ccc3N4)cn2)CC1 [I-22] | ≤ 6.12 | – | – | ≤ 6.12 | –
CN1CCC(n2cc(-c3ccc4c(c3)C(=O)N(Cc3cccc(Cl)c3)c3cc(F)ccc3N4)cn2)CC1 [I-23] | ≤ 6.12 | – | – | ≤ 6.12 | –
CN1CCC(n2cc(-c3ccc4c(c3)C(=O)N(Cc3cc(F)cc(F)c3)c3cc(F)ccc3N4)cn2)CC1 [I-24] | ≤ 6.12 | – | – | ≤ 6.12 | –
CN1CCC(n2cc(-c3ccc4c(c3)C(=O)N(Cc3cccc5cc[nH]c35)c3cc(F)ccc3N4)cn2)CC1 [I-25] | ≤ 6.12 | – | – | ≤ 6.12 | –

The remaining lines, values ahead:

pEC50 [1, 3] | Remaining cell proliferation activity (% of control) [1, 4] | Remaining cell proliferation activity (% of control) ([1]; compound at 1 μM) | pEC50 [1, 5] | pIC50 [2] | Compound
≤ 6.12 | B (25 ≤ B < 50) | D (75 ≤ D) | 6.12 to 6.30 | > 6.60 | O=C1c2cc(-c3ccc(N4CCNCC4)cc3)ccc2Nc2ccc(F)cc2N1Cc1ccccc1 [I-1, 10-Benzyl-8-fluoro-2-(4-(piperazin-1-yl)phenyl)-5,10-dihydro-11H-dibenzo[b,e][1,4]diazepin-11-one]
≤ 6.12 | B (25 ≤ B < 50) | D (75 ≤ D) | > 6.60 | – | O=C1c2cc(-c3ccc4[nH]ccc4c3)ccc2Nc2ccc(F)cc2N1Cc1ccccc1 [I-2]
≤ 6.12 | B (25 ≤ B < 50) | D (75 ≤ D) | > 6.60 | – | CN1CCC(n2cc(-c3ccc4c(c3)C(=O)N(Cc3ccccc3)c3cc(F)ccc3N4)cn2)CC1 [I-3]
≤ 6.12 | A (0 ≤ A < 25) | D (75 ≤ D) | 6.30 to 6.60 | – | O=C1c2cc(-c3ccc(-c4cn[nH]c4)cc3)ccc2Nc2ccc(F)cc2N1Cc1ccccc1 [I-4]
≤ 6.12 | D (75 ≤ D) | D (75 ≤ D) | ≤ 6.12 | – | O=C1c2cc(-c3ccc(N4CCNCC4)cc3)ccc2Nc2ccc(F)cc2N1c1ccccc1 [I-5]
≤ 6.12 | D (75 ≤ D) | D (75 ≤ D) | ≤ 6.12 | – | O=C1c2cc(-c3ccc(N4CCNCC4)cc3)ccc2Nc2ccc(F)cc2N1Cc1cccnc1 [I-6]
≤ 6.12 | C (50 ≤ C < 75) | D (75 ≤ D) | ≤ 6.12 | – | O=C1c2cc(-c3ccc(N4CCNCC4)cc3)ccc2Nc2ccc(F)cc2N1Cc1nccs1 [I-7]
≤ 6.12 | D (75 ≤ D) | D (75 ≤ D) | ≤ 6.12 | – | O=C1c2cc(-c3ccc4[nH]ccc4c3)ccc2Nc2ccc(F)cc2N1c1ccccc1 [I-8]
≤ 6.12 | D (75 ≤ D) | D (75 ≤ D) | ≤ 6.12 | – | O=C1c2cc(-c3ccc4[nH]ccc4c3)ccc2Nc2ccc(F)cc2N1Cc1cccnc1 [I-9]
≤ 6.12 | D (75 ≤ D) | D (75 ≤ D) | ≤ 6.12 | – | O=C1c2cc(-c3ccc4[nH]ccc4c3)ccc2Nc2ccc(F)cc2N1Cc1nccs1 [I-10]
6.30 to 6.60 | – | – | 6.30 to 6.60 | – | CCC(=O)Nc1ccc2c(c1)N(Cc1ccccc1)C(=O)c1cc(-c3ccc4[nH]ccc4c3)ccc1N2 [I-16]
